Experimental data as given in article PMC12015663 (Cancer Research Communications, 2025).
pEC50, pIC50: −log10 of the molar value.

Tests used:
[1] = system: pERK in A375 (BRAF V600E); test: pERK modulation in vitro, MSD ELISA, A375; assay type: cell-based; settings: Homo sapiens, A-375, 1 h, read-out: pERK EC50
ARAF = molecular target: T1, ARAF (Homo sapiens, UniProt P10398); test: Time-resolved fluorescence energy transfer binding assay (KINETICfinder); settings: partial length active recombinant human ARAF at 5 nmol/L; 60 minutes, room temperature; singlicate
T1 sequence (P10398 310-570 limits assumed): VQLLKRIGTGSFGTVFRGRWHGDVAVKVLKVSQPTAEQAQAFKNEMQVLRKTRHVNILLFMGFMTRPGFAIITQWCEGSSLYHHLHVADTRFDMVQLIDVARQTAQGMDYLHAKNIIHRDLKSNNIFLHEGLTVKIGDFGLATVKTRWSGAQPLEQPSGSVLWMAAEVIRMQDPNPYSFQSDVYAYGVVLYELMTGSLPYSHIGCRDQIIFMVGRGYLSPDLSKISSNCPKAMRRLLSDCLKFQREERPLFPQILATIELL
Description: Compounds were mixed with assay buffer (50 mmol/L HEPES pH 7.5, 1 mmol/L Ethyleneglycol-bis-(aminoethyl-ether)-N,N,N',N'-tetraacetic acid, 0.01% Brij-35, 10 mmol/L MgCl2, and 2 mmol/L Dithiothreitol), and 5 μL of this solution was transferred to the assay plate. The final concentration of DMSO in the assay was 1%. Hundred percent DMSO was used as a high and low control. Assays were run in singlicate with a reference compound included in each assay to evaluate reproducibility and assay quality.
Wells containing the fluorescent probe, antibody, and target (ARAF) were used as the high reaction control (total binding) and wells containing the probe and antibody were used as the low reaction control (nonspecific binding). […] Next, the substrate antibody solution was added, and the reaction was incubated for 60 minutes at room temperature. Percentage inhibition of each well was calculated using the following formula: % inhibition = 100 − [compound emission ratio (ER) − low control ER/high control ER − low control ER] × 100. Results were fitted to a concentration response curve with a variable slope and constraints of 0 and 100 for bottom and top, respectively, to generate the IC50 values.

[2] = system: AGK::BRAF fusion melanoma PDX; test: Antitumor efficacy in vivo, AGK::BRAF fusion melanoma PDX; set-up: species or system mice; settings: for effect on tumor growth: NOD/SCID mice
Description: (§1) Female mice with tumors harboring an AGK::BRAF fusion melanoma PDX or NF1-LOF ERMS PDX were established by inoculating NOD or NOG/SCID mice, respectively, with tumor fragments harvested from stock mice. Mice with tumors harboring an NF1-LOF mutation MeWo xenograft were established in 10 mice per treatment group by inoculating 7- to 9-week-old female BALB/c nude mice on the right flank with tumor cells (5 × 10^6) in 0.1 mL of PBS mixed with Matrigel (1:1) for tumor development. For the AGK::BRAF fusion melanoma PDX model, 7- to 8-week-old mice were inoculated subcutaneously on the right flank and randomized into eight mice per treatment group. For the NF1-LOF ERMS PDX model, tumor fragments were harvested from stock animals and implanted unilaterally on the left flank of 6- to 8-week-old mice and then the mice were randomized into 10 mice per treatment group. After tumor cell inoculation, the animals were checked daily for morbidity and mortality. All experiments were performed once.
Purified water (type II or high-performance liquid chromatography grade) was used as aqueous suspension vehicle and control for in vivo efficacy experiments. […] Tovorafenib was freshly prepared every day prior to dosing.
Randomization was performed based on the “Matched distribution” method (StudyDirector software, version 3.1.399.19) with the date of randomization denoted as day 0. Tumor volumes and body weight were measured twice per week after randomization. Tumor volume was measured in two dimensions (2D) using a caliper, and the volume was expressed in mm^3 using the formula V = (L × W × W)/2, in which V was tumor volume, L was tumor length (the longest tumor dimension), and W was tumor width (the longest tumor dimension perpendicular to L). Percentage change in tumor volume and body weight was calculated using StudyDirector software (version 3.1.399.19).
(§2) The mice in the control vehicle group were dosed either daily or twice daily.

NF1-LOF ERMS PDX = test: Antitumor efficacy in vivo, NF1-LOF ERMS PDX; set-up: species or system mice; settings: 25 mg/kg orally daily for 21 days
Description: as §1, with “For the NF1-LOF ERMS PDX model, tumor fragments were harvested from stock animals and implanted unilaterally on the left flank of 6- to 8-week-old mice and then the mice were randomized into 10 mice per treatment group. After tumor cell inoculation, the animals were checked daily for morbidity and mortality. All experiments were performed once.” left out
(§3) Randomization was performed based on the “Matched distribution” method (StudyDirector software, version 3.1.399.19) with the date of randomization denoted as day 0. Tumor volumes and body weight were measured twice per week after randomization. Tumor volume was measured in two dimensions (2D) using a caliper, and the volume was expressed in mm^3 using the formula V = (L × W × W)/2, in which V was tumor volume, L was tumor length (the longest tumor dimension), and W was tumor width (the longest tumor dimension perpendicular to L). Percentage change in tumor volume and body weight was calculated using StudyDirector software (version 3.1.399.19). […]

NF1-LOF MeWo xenograft = test: Antitumor efficacy in vivo, NF1-LOF MeWo xenograft; set-up: species or system mice; settings: 25 mg/kg orally daily for 28 days
Description: as §1, with “For the NF1-LOF ERMS PDX model, tumor fragments were harvested from stock animals and implanted unilaterally on the left flank of 6- to 8-week-old mice and then the mice were randomized into 10 mice per treatment group. After tumor cell inoculation, the animals were checked daily for morbidity and mortality. All experiments were performed once.” left out
as §3

PK parameters in mouse = assay type: in vivo; settings: Mouse PK (at efficacious doses), 12 – 25 mg/kg, QD
Description: as §2

BRAF wt = system: BRAF wt; set-up: method as in earlier work; settings: full length human construct; 0.125 nmol/L GST-tagged BRAF wild type, 12.5 nmol/L biotinylated MEK, ATP 50 μmol/L; 41 (TAK-632: ref 26-28); cited from earlier work
A375 = test: CellTiter-Glo cell viability assay, A375

C[C@@H](NC(=O)c1ncnc(N)c1Cl)c1ncc(C(=O)Nc2cc(C(F)(F)F)c(Cl)cn2)s1 [Tovorafenib]
pEC50 [1]: 7.15
pIC50 (ARAF): 7.26
day on which tumors started to regrow ([2]; 17.5 mg/kg daily, approximately 2 weeks after the last dosage): 28 days
effect on tumor growth ([2]; 17.5 mg/kg orally daily for 14 days): tumor regression was observed
effect on tumor growth ([2]; 25 mg/kg orally daily for 14 days): tumor regression was observed
tolerability ([2]; 25 and 17.5 mg/kg orally daily, both dose levels): well tolerated
body weight loss ([2]; 25 and 17.5 mg/kg orally daily, throughout the treatment): no significant body weight loss
time tumor regression was sustained after the last dose ([2]; both efficacy studies (25 and 17.5 mg/kg), last dose on day 14): at least 7 days
antitumor activity (NF1-LOF ERMS PDX): Lack of significant antitumor activity
tolerability (NF1-LOF ERMS PDX): well tolerated
tolerability (NF1-LOF MeWo xenograft): well tolerated
antitumor activity (NF1-LOF MeWo xenograft; BALB/c nude mice): Lack of significant antitumor activity
Cmin (PK parameters in mouse): 596 to 1265 ng/mL
AUC(0-t) (PK parameters in mouse; plasma, oral, read-out: Daily AUC0-24): 50100 to 96600 ng·h/mL
anti-proliferative activity (A375; A375, CTG 72 hours): potent
pEC50 (A375; Homo sapiens, A-375, 72 h, read-out: Proliferation EC50): 6.21
